The source of these data is patent US20110027251A1, “NOVEL USES FOR 4-PHENYLBUTYRATE (4PBA) AND ITS PHARMACEUTICALLY ACCEPTABLE SALTS” (priority 2008, published 2011).

Common to all, as to format: in vivo
Test [1] concerns GRP78. Nature of the test: Western blot of GRP78 in hippocampus. Particulars: Tg2576 mice, 200 mg/kg i.p. 5 weeks; compared with non-transgenic mice (FIG. 4). An excerpt: (§1) We used Tg2576 transgenic mice with Alzheimer's Disease expressing the 695-aa human APP isoform which contains the double APPswe Swedish mutation [(APP695) Lys670→Asn, Met671→Leu] triggered by a […] hamster promoter. In the Tg2576 transgenic mice suffering from Alzheimer's disease used in the experimental murine model, the Aβ peptide content in the brain accumulates exponentially between their 7th and 12th months of life. […] Therefore 16 months old Tg2576 transgenic mice females were treated once a day intraperitoneally with 200 mg/kg 4PBA or its vehicle during 5 weeks. […]
(§2) NaF) spun at 14,000×g, 4° C. for 20 min and the aliquots obtained from the supernatant were then freeze-dried at −80° C. […] Protein concentration was determined in both cases (using the Bradford test from Bio-Rad) and the aliquots stored at −80° C. until further use. […]
(§3) To carry out the Western Blot analyses, protein samples were mixed in buffers having the same volumes (2×Laemmli) resolved in SDS-polyacrylamide gels and transferred to a nitrocellulose membrane. […] After two washings in PBS/Tween-20 or TBS/Tween20 and one washing in PBS or TBS, immunolabelled protein bands were detected using an anti-rabbit or anti-mouse HRP conjugate (Santa Cruz, 1:5000 dilution) followed by a chemiluminescence system (ECL Amersham Biosciences), and autoradiographic exposure to HyperfilmTMECL (Amersham Biosciences). […]

In test [2] the test system is GSK3b phosphorylated at Ser 9. In words: Western blot of inactive GSK3b phosphorylated at Ser 9 in hippocampus. As to conditions: Tg2576 mice, 200 mg/kg i.p. 5 weeks; compared with vehicle-treated transgenic mice (FIG. 3B).
Description: as §1, §2, §3
For orientation: Immunoblotting shows a protein as a band on a membrane.

Test [3] relates to tau phosphorylated at Ser-202/Thr-205 (AT8). In words: Western blot of phosphorylated tau (AT8) in hippocampus. As to conditions: Tg2576 mice, 200 mg/kg i.p. 5 weeks; compared with non-transgenic mice (FIG. 3A).
Description: as §1, §2, §3

Test [4] relates to MAP-2. In words: Quantitative western blot of MAP-2 in hippocampal extracts. Particulars: Tg2576 mice, 200 mg/kg i.p. 5 weeks; untreated Tg2576 54.9±10.7, non-transgenic 100.0±14.9 (FIG. 6).
Description: as §1, §2, §3

The test system of test [5] is Aβ40. Nature of the test: Aβ40 level in cerebral cortex, sandwich ELISA. As to conditions: Tg2576 mice, 200 mg/kg i.p. 5 weeks; compared with vehicle-treated transgenic mice (FIG. 2A).
Description: as §1, with “weeks. To do this a 4PBA solution was prepared titrating equimolecular amounts of 4-phenylbutyric acid (Sigma) and sodium hydroxide at a pH: 7.4.” for “weeks.”
(§4) Mice were sacrificed 24 hours after performing the last test in the Morris water maze. […] Then the levels of Aβ40 and Aβ42 in the cerebral cortex were analyzed by a sandwich type ELISA test.
(§5) The cerebral cortexes were homogenized in a buffer containing 5 M guanidine HCl and 50 mM Tris HCl at a pH=8, protease inhibitors (Roche's CompleteTM Protease Inhibitor Cocktail), and phosphatase inhibitors (0.1 mM Na3VO4, 1 mM NaF). […] Aliquots of the supernatant were freeze-dried at −80° C. and the protein concentration determined using the Bradford method with the Bio-Rad kit. Aβ42 levels were measured with an extra sensitive sandwich-type ELISA kit from Biosource (Camarillo, Calif., USA). […]

Test [6] has as its system Aβ42. In words: Aβ42 level in cerebral cortex, sandwich ELISA. As to conditions: Tg2576 mice, 200 mg/kg i.p. 5 weeks; compared with vehicle-treated transgenic mice (FIG. 2A).
Description: as §1, with “weeks. To do this a 4PBA solution was prepared titrating equimolecular amounts of 4-phenylbutyric acid (Sigma) and sodium hydroxide at a pH: 7.4.” for “weeks.”
as §4, §5
(An ELISA detects its analyte on a solid surface through an enzyme-linked reagent.)

For test [7], the system named is histone 4 (H4). In words: Western blot of acetylated histone 4 in cortex. As to conditions: Tg2576 mice, 200 mg/kg i.p. 5 weeks; cortex extracts (FIG. 5).
Description: as §1, with “weeks. To do this a 4PBA solution was prepared titrating equimolecular amounts of 4-phenylbutyric acid (Sigma) and sodium hydroxide at a pH: 7.4.” for “weeks.”
To carry out the Western Blot analyses, protein samples were mixed in buffers having the same volumes (2×Laemmli) resolved in SDS-polyacrylamide gels and transferred to a nitrocellulose membrane. […] After two washings in PBS/Tween-20 or TBS/Tween20 and one washing in PBS or TBS, immunolabelled protein bands were detected using an anti-rabbit or anti-mouse HRP conjugate (Santa Cruz, 1:5000 dilution) followed by a chemiluminescence system (ECL Amersham Biosciences), and autoradiographic exposure to HyperfilmTMECL (Amersham Biosciences). The signals were quantified using the Scion Image program (Scion Corporation).

In test [8] the test system is Tg2576 transgenic mice. Nature of the test: Morris water maze (spatial learning and memory). From the text: We used Tg2576 transgenic mice with Alzheimer's Disease expressing the 695-aa human APP isoform which contains the double APPswe Swedish mutation [(APP695) Lys670→Asn, Met671→Leu] triggered by a […] hamster promoter. In the Tg2576 transgenic mice suffering from Alzheimer's disease used in the experimental murine model, the Aβ peptide content in the brain accumulates exponentially between their 7th and 12th months of life. […] Therefore 16 months old Tg2576 transgenic mice females were treated once a day intraperitoneally with 200 mg/kg 4PBA or its vehicle during 5 weeks. To do this a 4PBA solution was prepared titrating equimolecular amounts of 4-phenylbutyric acid (Sigma) and sodium hydroxide at a pH: 7.4. A group of normal mice, not genetically altered, from same similar strains and ages was used as control group. All the clinical test procedures were performed according to the European and the Spanish legislation (86/609/CEE; RD 1201/2005).
The Morris water maze was used to evaluate the operational and reference memory functions in Tg2576 transgenic mice treated with 4 PBA as described previously in the literature (Ribe et al., 2005). Groups of Tg2576 female mice treated with 4PBA (n=6), vehicle (n=7), and non-transgenic litter siblings (n=10) were subjected to spatial learning and memory tests using the Morris water maze when they became 16 months old. The maze consisted of a circular pool filled with water at 20° C. The mice received prior training in a pool with a visible platform during 3 consecutive days (8 tests per day) being able to swim towards a platform raised above the water level. The training with hidden platform took 9 consecutive days (4 tests per day) during which all mice were allowed 60 seconds to find the platform submerged 1cm below the water surface. […] All the trials were monitored with a VHS camera and the Watermaze software to analyze escape latencies and the percentage of time of occupation of each pool quadrant during prior tests (using the Ethovision software, Wageninge, Netherlands). […]

The subject of test [9] is GluR1 subunit of the AMPA receptor. Nature of the test: Western blot of GluR1 in membrane enriched hippocampal protein extracts. As to conditions: Tg2576 mice, 200 mg/kg i.p. 5 weeks, vehicle 81.18±9.5%, non-transgenic 100.0±6.5% (FIG. 6).
Description: as §1, §2, §3

The test system of test [10] is PSD95. Nature of the test: Western blot of PSD95 in membrane enriched hippocampal protein extracts. Particulars: Tg2576 mice, 200 mg/kg i.p. 5 weeks; membrane enriched hippocampal extracts (FIG. 6).
Description: as §1, §2, §3

As to `O=C([O-])CCCc1ccccc1.[Na+]` [4PBA, 4-phenylbutyric acid], the “GRP78 levels in hippocampus” value in [1] is listed as “did not differ”. Moreover, the “levels of inactive GSK3b phosphorylated at Ser 9 in hippocampus” value in [2] is reported as “higher”. Also, the “phosphorylated tau at the AT8 site in hippocampus” value in [3] is “no differences were found”. Besides, the MAP-2 expression levels in [4] was 77.7±11.6. For the same compound, the “Aβ40 levels in cerebral cortex” value in test [5] is on record as “no difference was observed”. In [6], the “Aβ42 levels in cerebral cortex” value is recorded as “no difference was observed”. Moreover, the “acetylation of cortical histone 4 (H4)” value in test [7] is “induction of acetylation”. The “proficiency in Morris water maze, invisible platform (escape latency)” value in [8] (16 month old Tg2576 female mice, 200 mg/kg i.p. once a day for 5 weeks, compared with non-transgenic control mice of same age (FIG. 1B)) is given as “did not differ”. In [8] (Tg2576 mice, 200 mg/kg i.p. 5 weeks, first training tests with visible platform (FIG. 1A)), the “escape latencies, visible platform training” value is recorded as “did not differ significantly”. In test [8] (Tg2576 mice, 200 mg/kg i.p. 5 weeks, platform removed, compared with control group of same age (FIG. 1C)), the “percentage of time spent in the target quadrant (memory retention)” value is “did not differ”. Also, in test [9], the “expression levels of the GluR1 subunit of the AMPA receptor” value was found to be 161.37±27.5%. Also, the “expression of PSD95 levels” value in [10] is listed as “induced significantly”.
